Data set [1] is described as follows: HPTS/DPX vesicle transport assay. Format: biochemical. The following applies: for transport of positive, zwitterionic and neutral cargo into vesicles: cargo: singly charged, neutral biomolecules, vitamins, antibiotics, neuromuscular blocking agents, proteins; for transport of heptaarginine across the lipid membrane of the vesicles: cargo heptaarginine (H-Trp-Arg7-OH), HPTS fluorescence increase. From the text: A: Heptaarginine, B: Heptalysine, C: Protamine, D: Acethylcholine, E: Pancuronium, F: Vecuronium, G: Vitamin B1, H: Ranitidin, I: Tryptophan, J: Ampicilin, K: Phenylalanine, L: Phalloidin, M: Glutamic acid, and N: Bovine albumin. +: positively charged cargos, +/−: zwitterionic cargos, ©: neutral cargo, and −: negatively charged cargos;
A hydrophilic heptaarginine peptide (H-Trp-Arg7-OH) which is unable to spontaneously translocate across neutral phosphocholine lipid vesicles in the absence of counterion activators was used as prototype for cationic cell-penetrating molecular scaffolds (peptides and polymers). The capability of boron clusters to activate the transport of the heptaarginine peptide (H-Trp-Arg7-OH) was investigated first in large unilamellar vesicles (LUVs). The HPTS/DPX assay, that uses 8-hydroxypyrene-1,3,6-trisulfonate and p-xylene-bis-pyridinium, was implemented to monitor peptide-transport activation by the clusters. This assay not only reports on the potential of a synthetic carrier to transport the positively charged peptide into a vesicle, but also to shuttle the cationic quencher DPX to the outside.
Transport can accordingly be monitored, and the activator efficacy quantified, by a time-resolved fluorescence increase at different concentrations of the carrier.
HTPS emission was monitored during the sequential addition of the globular cluster carrier and peptide cargo; a strong detergent (Triton® X-100) was added at the end to affect vesicle lysis and complete dye release that allowed a normalization of the fluorescence intensity data.
This was validated in vesicle transport experiments, which included targets which have not been previously accessible to other non-covalent synthetic carriers or counterion activators. The targets included singly charged, zwitterionic, and neutral biomolecules (such as acetylcholine and amino acids), vitamins, antibiotics, neuromuscular blocking agents and proteins.

Data set [2] is described as follows: Transport of a bioactive molecule through a membrane by fused, multinuclear and iodinated clusters. From the text: Also fused boron clusters and multinuclear boron clusters were successfully used as transporters for a bioactive molecule through a membrane.
The target in data set [3] is T1, Cereblon E3 Ligase (Homo sapiens, UniProt Q96SW2).
T1 construct: expressed in transfected cells
As to the kind of experiment: NanoBRET TE Intracellular E3 Ligase Assay (CRBN target engagement). It counts as cell-based. The following applies: dBET1 in presence vs absence of B1 (0, 25, 50 μM). Here is the method:
Crossbars and error bars indicate mean and standard deviation; values obtained in each experimental value are represented with a different shape;
For dBET1, a PROTAC with known low permeability, it was shown that B1 enhances its activity. The internalization of this PROTAC in the absence and presence of the cluster was assessed by its ability to bind to the Cereblon E3 Ligase by using a NanoBRET™ TE Intracellular E3 Ligase Assay. Enhanced uptake of dBET1 was observed (factor 2-3 decrease in IC50 value).

For data set [4], the system named is mammalian cell. As to the kind of experiment: Mammalian cell survival. It counts as cell-based. The following applies: 500 μM.
Data set [5] concerns Escherichia coli Top10 strain. As to the kind of experiment: E. coli Top10 viability with kanamycin A and B1. It counts as cell-based. Here is the method: Bar graphs (left) and time course (right) of E. coli Top10 viability in the presence of different concentrations of kanamycin monosulfate (0, 2500, 3000 or 3500 nM) and B1 (0, 500, 750 or 1000 μM) in LB broth at 37° C.; error bars (shown on the right) refer to the standard deviation (n=3; V (%): E. coli Top10 viability, [KA] […]
For kanamycin A, effective passage through the cell membrane into the cytosol is essential to reach its intracellular targets. […] In the absence of the cluster, E. coli retained viability (60%), which disappeared almost completely (<5%) in the presence of the antibiotics carrier (FIG. 5). The enhanced antibiotic activity is attributed to the boron cluster's carrier potential as all other factors were left the same.

For data set [6], the system named is HeLa cells. As to the kind of experiment: Tm-Arg8 endosomal escape by confocal fluorescence microscopy. It counts as cell-based. The method, then: Cells were incubated with 1 μM Tm-Arg8 and 0 (left picture) or 10 μM clusters diluted in HKR buffer for 1 hour, washed twice with HKR buffer, and imaged by confocal fluorescence microscopy; Images show TAMRA fluorescence (light gray) and the brightfield in the inset pictures; scale bars: 50 μm;
The potential of boron clusters to trigger the endosomal escape into live cells was first studied for oligocationic peptides as cargo. As a prototype, the octaarginine peptide labelled with carboxytetramethylrhodamine (Tm-Arg8) was selected, which at low concentrations (i.e., 1 μM) enters cells by endocytosis and remains trapped in the intracellular compartments. The cytosolic delivery of Tm-Arg8 was followed by confocal microscopy in the presence and absence of superchaotropic boron clusters (FIG. 4).

T1 sequence (Q96SW2 whole entry): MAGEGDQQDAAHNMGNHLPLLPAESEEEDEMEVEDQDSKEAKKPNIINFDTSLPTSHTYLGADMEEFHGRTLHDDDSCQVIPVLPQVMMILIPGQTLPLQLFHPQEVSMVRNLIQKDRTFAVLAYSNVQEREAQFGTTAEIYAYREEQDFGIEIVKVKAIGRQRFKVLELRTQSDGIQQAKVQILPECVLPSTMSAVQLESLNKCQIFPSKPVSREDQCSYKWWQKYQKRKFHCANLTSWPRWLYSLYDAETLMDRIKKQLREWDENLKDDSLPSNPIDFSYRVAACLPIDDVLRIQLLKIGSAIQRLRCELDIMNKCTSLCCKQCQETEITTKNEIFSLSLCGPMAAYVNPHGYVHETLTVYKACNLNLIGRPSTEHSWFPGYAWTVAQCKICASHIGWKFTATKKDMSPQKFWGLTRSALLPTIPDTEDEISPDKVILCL

For pyrene butyrate [reference compound], the “fluorescence response (transport) of zwitterionic or neutral analytes” value in data set [1] (analytes acetylcholine, tryptophan, ampicillin, vecuronium and phalloidin, comparison activator) is “None of the selected, zwitterionic or neutral, analytes (acetylcholine, tryptophan, ampicillin, vecuronium and phalloidin) showed any fluorescence response”.
For the compound (1,2-C2B9HO2-3,3′-Co^− [CS1], the “use as transporter / active cluster for a bioactive molecule through a membrane” value (“use as transporter / active cluster” for short) in data set [2] is “successfully used as active clusters”.
Consider B10Br10^2− [B4], for which the “transport of positive, zwitterionic and neutral cargo into vesicles” value in data set [1] is “same trends were reproduced in transport efficiency”.
On to 8,8′-I2-(1,2-C2B9H10)2-3,3′-Co^− [CS6], for which the “use as transporter / active cluster” value in data set [2] is reported as “successfully used as active clusters”.
Regarding B12Br12^2−, the “decrease in IC50 value of dBET1” value in data set [3] is 2-3 factor. For the same compound, the “compatibility with mammalian cell survival” value in data set [4] is given as “compatible with mammalian cell survival”. Moreover, the “transport of negatively charged cargo into vesicles” value in data set [1] (cargo glutamate and albumin) was “with the exception of the negatively charged molecules (glutamate and albumin)”. In addition, in data set [1], the “transport of positive, zwitterionic and neutral cargo into vesicles” value is “transported all types of cargo (positive and neutral)”. Besides, the E. coli viability in data set [5] (kanamycin A 3.5 μg/ml in the presence of B1 500 μM) is less than 5%.
As for B12Br11—O-n-C3H7^2− [B2], the “transport of heptaarginine across the lipid membrane of the vesicles” value in data set [1] is “little influence”.
In the case of B12H11NBD^− [B3], in data set [6] (1 μM Tm-Arg8, 10 μM cluster, HKR buffer, 1 hour), the “Tm-Arg8 peptide endosomal escape (diffuse cytosolic fluorescence)” value is “excellent peptide endosomal escape”. Besides, in data set [6] (fluorescent cluster with Tm-Arg8), the “peptide and cluster colocalization” value is “significant peptide and cluster colocalization”. Also, in data set [1], the “transport of heptaarginine across the lipid membrane of the vesicles” value is given as “efficient transport”.
Usually viability stands for the share of living cells, or the viability signal relative to a control. As for `NC[C@H]1O[C@H](O[C@H]2[C@H](O)[C@@H](O[C@H]3O[C@H](CO)[C@@H](O)[C@H](N)[C@H]3O)[C@H](N)C[C@@H]2N)[C@H](O)[C@@H](O)[C@@H]1O` [kanamycin A], the viability at 3.5 µg/mL in data set [5] (Escherichia coli, TOP10STRAIN, read-out: E. coli viability) came to 60%. Also, the “antibiotic effectiveness in bacteria” value in data set [5] (antibiotic transported by boron cluster) is “increased its effectiveness”.
Take “(8-I-1,2-C2B9H10)-(1′2′-C2B9H11)-3,3′-Co^− [CS4]”: the “use as transporter / active cluster” value in data set [2] is recorded as “successfully used as active clusters”.
As for (1,7-C2B9H11)2-2,2′-Co^− [CS2], the “use as transporter / active cluster” value in data set [2] is “successfully used as active clusters”.

For the origin of these results see US20230293699A1, “USE OF A BORON CLUSTER AS TRANSMEMBRANE CARRIER” (CONSTRUCTOR UNIVERSITY BREMEN GGMBH, priority 2020, published 2023).
